Numbered stars: 1 amine (or outer) side, 2 acyl side, 3 side chain; on linkers, the order of the positions; unused ones are H or OH. Bridge positions count the residues as written; N and C are the ends. Square brackets hold non-standard residues; d marks the D form. Peptide text beside a SMILES is read from it. I, II: the chains in the order shown. Actinocin(9to1) = Cc1c2oc3c(C)ccc(C(=O)[*:1])c3nc-2c(C(=O)[*:2])c(N)c1=O; NMeV = CN[C@H](C(=O)O)C(C)C; Sar = CNCC(=O)O
Key:
in vitro [1] = details: human, Caco-2
in vitro [2] = details: human, Caco-2; remark: listed apart in the source
Intestine = test: Ratio of intestine AUC in po dosed mdr1 knock out mouse to intestine AUC in po dosed wild type mouse; assay type: ADME, organism-based; details: in vivo
clinical = details: human, in vivo
Description: Fraction absorbed in human

in vitro [3] = details: human, Caco-2; remark: listed apart in the source
P-gp = test: in vitro; details: human
[4] = target: ATP-binding cassette sub-family C member 2 (Homo sapiens, UniProt Q92887); test: Fold activity change at MRP2 ATPase (unknown origin) relative to control; assay type: ADME
Chain of ATP-binding cassette sub-family C member 2 (Q92887 whole entry): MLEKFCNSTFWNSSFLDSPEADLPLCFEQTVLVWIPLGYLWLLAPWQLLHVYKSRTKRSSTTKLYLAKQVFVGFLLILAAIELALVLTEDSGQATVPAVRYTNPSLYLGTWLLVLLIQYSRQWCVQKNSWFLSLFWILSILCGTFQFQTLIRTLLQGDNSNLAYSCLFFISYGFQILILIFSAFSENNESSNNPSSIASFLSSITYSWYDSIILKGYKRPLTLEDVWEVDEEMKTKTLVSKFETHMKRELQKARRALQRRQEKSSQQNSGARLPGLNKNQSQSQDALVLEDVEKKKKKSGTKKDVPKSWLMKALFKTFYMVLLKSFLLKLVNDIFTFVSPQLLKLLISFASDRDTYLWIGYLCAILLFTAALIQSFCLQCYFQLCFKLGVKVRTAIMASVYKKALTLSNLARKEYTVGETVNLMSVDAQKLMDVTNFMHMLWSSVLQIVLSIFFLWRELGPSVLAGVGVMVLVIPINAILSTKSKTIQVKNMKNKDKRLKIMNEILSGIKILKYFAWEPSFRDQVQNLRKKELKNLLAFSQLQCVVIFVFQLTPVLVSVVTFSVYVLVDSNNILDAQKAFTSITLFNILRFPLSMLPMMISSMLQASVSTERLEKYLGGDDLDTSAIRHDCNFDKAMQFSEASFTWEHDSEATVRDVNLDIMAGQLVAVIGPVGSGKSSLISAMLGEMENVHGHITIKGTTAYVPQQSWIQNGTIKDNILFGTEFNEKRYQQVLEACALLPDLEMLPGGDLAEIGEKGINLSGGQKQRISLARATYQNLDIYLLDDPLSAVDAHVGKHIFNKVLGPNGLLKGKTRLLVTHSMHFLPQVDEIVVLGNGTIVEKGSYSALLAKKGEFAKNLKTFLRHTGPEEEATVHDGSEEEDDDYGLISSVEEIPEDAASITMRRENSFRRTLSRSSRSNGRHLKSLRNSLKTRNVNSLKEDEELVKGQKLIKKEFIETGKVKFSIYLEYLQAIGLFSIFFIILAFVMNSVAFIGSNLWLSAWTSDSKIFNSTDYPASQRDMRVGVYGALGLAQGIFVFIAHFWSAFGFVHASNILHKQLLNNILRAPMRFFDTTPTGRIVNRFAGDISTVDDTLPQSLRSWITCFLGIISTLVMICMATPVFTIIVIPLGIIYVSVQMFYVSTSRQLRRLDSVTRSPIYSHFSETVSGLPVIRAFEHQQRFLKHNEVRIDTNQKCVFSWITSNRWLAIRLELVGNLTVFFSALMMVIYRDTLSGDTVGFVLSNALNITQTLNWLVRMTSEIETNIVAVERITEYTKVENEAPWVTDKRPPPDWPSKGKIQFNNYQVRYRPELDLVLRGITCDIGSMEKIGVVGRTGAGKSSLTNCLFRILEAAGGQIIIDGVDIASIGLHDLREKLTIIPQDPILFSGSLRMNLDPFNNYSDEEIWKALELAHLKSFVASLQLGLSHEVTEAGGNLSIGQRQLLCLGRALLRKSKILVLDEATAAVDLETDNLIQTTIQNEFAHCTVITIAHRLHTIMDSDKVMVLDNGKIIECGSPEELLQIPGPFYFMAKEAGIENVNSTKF

[5] = human, caco-2, 2 h, 10 µM
[6] = human, caco-2, 2 h, 10 µM; remark: listed apart in the source
MDCK [7] = test: Efflux ratio of permeability from basolateral to apical over apical to basolateral side of MDCK cells expressing MDR1; assay type: ADME, cell-based, Canis lupus familiaris; details: dog
MDCK [8] = test: Efflux ratio of permeability from basolateral to apical over apical to basolateral side of MDCK cells expressing BCRP; assay type: ADME, cell-based, Canis lupus familiaris; details: dog
Homo sapiens = organism: Homo sapiens; details: in vivo
Description: Fraction absorbed in human

Compound | Papp A→B at 2 h, 10 µM (in vitro [1]) [×10⁻⁶ cm/s] | Papp B→A at 2 h, 10 µM (in vitro [2]) [×10⁻⁶ cm/s] | Ratio AUC (Intestine) | Fa (clinical) [%] | efflux ratio at 2 h, 10 µM (in vitro [3]) | efflux ratio at 2 h, 10 µM (P-gp; Caco-2) | fold change (FC) [4] | Papp [5] [×10⁻⁶ cm/s] | efflux ratio at 2 h, 10 µM (P-gp; Caco-2, with LY335979 1 uM) | Papp [6] [×10⁻⁶ cm/s] | Ratio (MDCK [7]) | Ratio (MDCK [8]) | Fabs (Homo sapiens) [%]
CN/C(=N/CCSCc1nc[nH]c1C)NC#N [CIMETIDINE] | 1.4 | 4.8 | 0.95 | 60 | 3.5 | 1.8 | – | – | – | – | – | – | –
COc1cc2c(c(OC)c1OC)-c1ccc(OC)c(=O)cc1[C@@H](NC(C)=O)CC2 [COLCHICINE] | – | – | – | 44 | 4.3 | 0.8 | -0.4 | – | – | – | – | – | –
Cc1c2oc3c(C)ccc(C(=O)N[C@@H]4C(=O)N[C@H](C(C)C)C(=O)N5CCC[C@H]5C(=O)N(C)CC(=O)N(C)[C@@H](C(C)C)C(=O)O[C@@H]4C)c3nc-2c(C(=O)N[C@@H]2C(=O)N[C@H](C(C)C)C(=O)N3CCC[C@H]3C(=O)N(C)CC(=O)N(C)[C@@H](C(C)C)C(=O)O[C@@H]2C)c(N)c1=O [DACTINOMYCIN] (I: T[dV]P[Sar][NMeV] / II: T[dV]P[Sar][NMeV]; ester I:1-I:C, II:1-II:C; linker I:N-II:N via Actinocin(9to1)) | – | – | – | 5 | 6.4 | – | – | 4.5 | 4 | 0.8 | – | – | –
COc1cccc2c1C(=O)c1c(O)c3c(c(O)c1C2=O)C[C@@](O)(C(C)=O)C[C@@H]3O[C@H]1C[C@H](N)[C@H](O)[C@H](C)O1 [DAUNORUBICIN] | – | – | 3 | 10 | – | 0.4 | – | – | – | – | – | – | –
C[C@H]1O[C@@H](O[C@H]2[C@@H](O)C[C@H](O[C@H]3[C@@H](O)C[C@H](O[C@H]4CC[C@@]5(C)[C@H](CC[C@@H]6[C@@H]5C[C@@H](O)[C@]5(C)[C@@H](C7=CC(=O)OC7)CC[C@]65O)C4)O[C@@H]3C)O[C@@H]2C)C[C@H](O)[C@@H]1O [DIGOXIN] | – | – | 12 | 68 | 7.5 | 1 | – | – | – | – | 27 | 1.3 | –
COc1ccc([C@@H]2Sc3ccccc3N(CCN(C)C)C(=O)[C@@H]2OC(C)=O)cc1 [DILTIAZEM] | 12 | 8.3 | – | – | 0.7 | – | – | – | 0.4 | – | 0.8 | – | –
O=c1[nH]c2ccccc2n1CCCN1CCC(n2c(=O)[nH]c3cc(Cl)ccc32)CC1 [DOMPERIDONE] | 5.2 | 15.4 | – | 93 | – | – | 3 | – | – | – | – | – | –
CC[C@H]1OC(=O)[C@H](C)[C@@H](O[C@H]2C[C@@](C)(OC)[C@@H](O)[C@H](C)O2)[C@H](C)[C@@H](O[C@@H]2O[C@H](C)C[C@H](N(C)C)[C@H]2O)[C@](C)(O)C[C@@H](C)C(=O)[C@H](C)[C@@H](O)[C@]1(C)O [ERYTHROMYCIN] | 0.3 | 3 | – | 35 | 7.1 | 0.5 | 1 | – | – | – | – | 8.5 | –
COc1cc([C@@H]2c3cc4c(cc3[C@@H](O[C@@H]3O[C@@H]5CO[C@@H](C)O[C@H]5[C@H](O)[C@H]3O)[C@H]3COC(=O)[C@H]23)OCO4)cc(OC)c1O [ETOPOSIDE] | 0.5 | 3 | 3.3 | 25 | 4.8 | 1.4 | – | – | – | – | 11 | 9.7 | –
CC(C)n1c(/C=C/C(O)CC(O)CC(=O)O)c(-c2ccc(F)cc2)c2ccccc21 (centres undefined) [FLUVASTATIN] | – | – | – | 98 | – | – | – | 15.3 | 12.3 | 1.5 | 4.9 | – | –
CN(Cc1cnc2nc(N)nc(N)c2n1)c1ccc(C(=O)N[C@@H](CCC(=O)O)C(=O)O)cc1 [METHOTREXATE] | 1.2 | 1.1 | – | – | 0.9 | – | -0.2 | – | – | – | – | – | –
Cc1ccccc1N1C(=O)c2cc(S(N)(=O)=O)c(Cl)cc2NC1C (centres undefined) [METOLAZONE] | – | – | – | – | 3.3 | – | – | 9.6 | 2.1 | 1.8 | – | 5.1 | –
C=CCN1CC[C@]23c4c5ccc(O)c4O[C@H]2C(=O)CC[C@@]3(O)[C@H]1C5 [NALOXONE] | 21.5 | 10.3 | – | – | 0.5 | – | – | – | 0.5 | – | 0.7 | – | –
O=C(O)c1cc(/N=N/c2ccc(S(=O)(=O)Nc3ccccn3)cc2)ccc1O [SULFASALAZINE] | – | – | – | – | 16.9 | 32.2 | 9 | – | – | – | – | – | –
O=C1C(CC[S+]([O-])c2ccccc2)C(=O)N(c2ccccc2)N1c1ccccc1 (centres undefined) [SULFINPYRAZONE] | – | – | – | 85 | 3.3 | – | – | 5.8 | 9 | 1.2 | – | – | –
CC[C@@]1(O)C(=O)OCc2c1cc1n(c2=O)Cc2cc3c(CN(C)C)c(O)ccc3nc2-1 [TOPOTECAN] | – | – | – | 30 | 6.9 | – | – | 7.1 | 13.1 | 0.9 | – | 2.4 | –
CC[C@]1(O)C[C@@H]2CN(CCc3c([nH]c4ccccc34)[C@@](C(=O)OC)(c3cc4c(cc3OC)N(C)[C@H]3[C@@](O)(C(=O)OC)[C@H](OC(C)=O)[C@]5(CC)C=CCN6CC[C@]43[C@@H]65)C2)C1 [VINBLASTINE] | 1 | 11.9 | 0.7 | 5 | 13.5 | 2 | – | – | – | – | – | 1.8 | –
IVERMECTIN | – | – | – | – | – | – | – | – | – | – | – | – | 56

From ChEMBL document CHEMBL3526001, “Attenuation of intestinal absorption by major efflux transporters: quantitative tools and strategies using a Caco-2 model” (Drug Metab Dispos, 2011)
